How the values were obtained:
U2OS cells [1] = experiment: Measurement of drug effects on cell cycle using acid lysis method (DNA content by DAPI image cytometry); assay type: cell-based, human; conditions: drug treatment for 20 hours, Nucleocounter NC-3000 (FIG. 5)
Method: U2OS cells were grown in RPMI+10% FCS to approximately 75% confluency in 6-well plates (Nunclon surface, Nunc) and then treated with the following drugs for 20 hours:
After drug treatment each of the wells was washed once with 1 mL of PBS and then incubated with 0.25 ml of lysis buffer (100 mM citrate buffer (pH 2.25), 0.5% Triton X-100, 5 μg/ml DAPI) for 5 minutes at 37° C. Prior to quantitative image cytometry (Nucleocounter NC-3000), the samples were neutralized by adding 0.25 ml stabilization buffer (500 mM citrate, pH 8.3).

U2OS cells [2] = conditions: known/described effect; cited from earlier work

## CC[C@@]1(O)C(=O)OCc2c1cc1n(c2=O)Cc2cc3ccccc3nc2-1 [Camptothecin]
U2OS cells [1]
  cell cycle distribution (DNA content histogram): accumulation of S-G2 cells
U2OS cells [2]
  known effect of the drug on the cell cycle (arrest phase): 4. Camptothecin, CRT (S-G2 arrest):

## COc1cc([C@@H]2c3cc4c(cc3[C@@H](O[C@@H]3O[C@@H]5CO[C@@H](C)O[C@H]5[C@H](O)[C@H]3O)[C@H]3COC(=O)[C@H]23)OCO4)cc(OC)c1O [Etoposide]
U2OS cells [2]
  known effect of the drug on the cell cycle (arrest phase): 5. Etoposide (S-G2 arrest):

## NC(=O)NO [Hydroxyurea]
U2OS cells [2]
  known effect of the drug on the cell cycle (arrest phase): 3. Hydroxyurea, HU (S arrest):

## N[C@@H](Cn1ccc(=O)c(O)c1)C(=O)O [L-mimosine]
U2OS cells [1]
  cell cycle distribution (DNA content histogram): predominantly G1 peak
U2OS cells [2]
  known effect of the drug on the cell cycle (arrest phase): 2. L-mimosine (G1 arrest):

## COC(=O)Nc1nc2ccc(C(=O)c3cccs3)cc2[nH]1 [Nocodazole]
U2OS cells [2]
  known effect of the drug on the cell cycle (arrest phase): 1. Nocodazole (G2-M arrest):
